According to patent publication US20010049389A1, “Arthropod-controlling composition” (priority 2000, published 2001):

How the values were obtained:
Type in all cases: in vivo
[1] = tested on: adult houseflies (Musca domestica); experiment: Test Example 1: oil solution spray in glass chamber, knock-down of houseflies; details: 0.7 ml of 0.5% oil solution (Preparation example 9) sprayed in 0.34 m^3 glass chamber
Protocol: Ten (5 males and 5 females) adult houseflies (Musca domestica) were released in a glass chamber (70 cm cube, capacity: 0.34 m^3). Seven-tenth milliliter (0.7 ml) of the oil solution obtained in Preparation example 9 was applied into the chamber with a spray gun at a pressure of 0.9 kg/cm^2. Fifteen minutes after spraying, the knocked-down houseflies were counted. Reference compound was also tested.

[2] = tested on: adult smokybrown cockroaches (Periplaneta fuliginosa); experiment: Test Example 5: heating fumigant (ceramic plate) in 5.8 m^3 chamber, smokybrown cockroaches; details: heating fumigant (Preparation example 24, 500 mg) at about 200° C. in 5.8 m^3 chamber
Protocol: On the bottom of a cubic chamber having 1.8 m of side (5.8 m^3), the heating fumigant (ceramic plate) obtained in Preparation example 24 with an electric heater was set in the center. Two plastic cups were put at two corners in the chamber, wherein each cup has ten (5 males and 5 females) adult German cockroaches (Blattella germanica) therein. Two hours after turning on an electric current, the ceramic plate was heated to about 200° C. (200±5° C.) and the active ingredient was vaporized. The heating temperature was estimated by measuring a surface temperature of the ceramic plate with radiation pyrometer (TR-0506C produced by Minolta Company) in advance. Then, the knocked-down cockroaches were counted and the knock-down percentage was calculated. Further, the cockroaches were transferred to a clean plastic cup and given foods and water. The mortality was observed after 7 days.
Furthermore, the same tests were performed except that six (3 males and 3 females) adult smokybrown cockroaches (Periplaneta fuliginosa) and six (3 males and 3 females) adult American cockroaches (Periplaneta americana) were used in place of ten German cockroaches.

[3] = tested on: cat flea (Ctenocephalides felis) eggs; experiment: Test Example 8: treated filter paper, hatching of cat flea eggs
Protocol: A designated amount of the Pyrone Compound was dissolved in acetone to give a 0.2 ml solution, which was uniformly treated on a filter paper having 3.8 cm in diameter, and air-dried for one hour. The filter paper was set on an aluminum plate of 4 cm in diameter. Twenty cat flea (Ctenocephalides felis) eggs were put on the filter paper and the plate was kept at 25±3° C. and 70-90% of humidity in a plastic Petri dish. After 7 days, the hatching was observed. The tests were repeated three times and the results are given in […]

adult Porcellio scaber = experiment: Test Example 13: oil-based aerosol spray, Porcellio scaber; details: about 450 mg of 1.0% oil-based aerosol sprayed, after 3 days
Protocol: According to Preparation examples 10-14, 1.0% oil-based aerosol of the Pyrone Compound was obtained. A container (8.75 cm in diameter, 7.5 cm in height, bottom covered 16-mesh iron net and inside wall painted butter for preventing tested pill bugs to escape) having 5 adult pill bugs (Armadillidium vulgare) therein was set on the bottom center of a glass cylinder having 20 cm in diameter and 60 cm in height. About 450 mg of the above oil-based aerosol were sprayed to the pill bugs from the upper part of the cylinder. After 30 seconds, the pill bugs were taken out and put into a clean plastic cup having soil and dead leaves therein. The pill bugs were given food and water and observed after 3 days. The tests were repeated twice. The mortality was 100%. Reference compound was also tested and the mortality was 40%.
The same procedure was performed as in Test example 12 except that 5 adult Porcellio scaber were used in place of Armadillidium vulgare. As a result, the mortality of the Pyrone Compound was 100%.

[4] = tested on: cotton aphids (Aphis gossypii); experiment: Test Example 15: foliar spray on cucumber, cotton aphids; details: 500 ppm dilution of flowable (Preparation example 7), 30 ml sprayed, after 6 days
Protocol: About 30 cotton aphids (Aphis gossypii) were put on a cucumber leaf (in first-leaf stage) grown in a 90 ml plastic cup.
Next day, the formulation obtained in Preparation example 7 was diluted with water containing a spreading agent (Tokurino produced by Nihon Nohyaku Co.) to make the concentration of the Pyrone Compound to 500 ppm. Thirty milliliters (30 ml) of the dilution were sprayed to the cucumber and air-dried. The plastic pot was put in a container and allowed to stand at 22±2° C. in a greenhouse. After 6 days, the mortality was 90% or more.

[5] = tested on: 4-instar larvae of tobacco cutworm (Spodoptera litura); experiment: Test Example 17: treated cabbage leaf disc, feeding damage by tobacco cutworm; details: 50 μg on cabbage leaf disc of 1 cm diameter, after 24 hours, 5 repetitions
Protocol: A methanol solution (50 μg/20 μl) of the Pyrone Compound was prepared. The solution (20 μl) was painted on a cut leaf disc of cabbage (1 cm in diameter). After vaporizing methanol, the leaf disc was put on a filter paper, which was wet with 1 ml of water, in Petri dish making the painted surface upside. Two 4-instar larvae of tobacco cutworm (Spodoptera litura) were put in the Petri dish. After 24 hours, the damage of the leaf disc was observed and compared with the test result of the non-treated disc. The tests were repeated 5 times.

[6] = tested on: first-instar larvae of summer fruit tortrix (Adoxophyes orana fasciata); experiment: Test Example 19: treated artificial food, summer fruit tortrix larvae; details: 1 ml of 500 ppm dilution (Preparation example 2) in 6 g artificial food, after 6 days
Protocol: The formulation obtained in Preparation example 2 was diluted with water to make the concentration of the Pyrone Compound to 500 ppm. One milliter (1 ml) of the dilution was added to 6 g of artificial food (Insecta LF produced by Nihon Nosankogyo Co.) in plastic cup having 5.5 cm in diameter. Thirty first-instar larvae of summer fruit tortrix (Adoxophyes orana fasciata) were put into the plastic cup. After 6 days, the mortality was 90% or more.

[7] = tested on: centipede (Scolopendra subspinipes mutilans); experiment: Test Example 22: oil-based aerosol spray, centipede; details: about 1000 mg of 1.0% oil-based aerosol sprayed, after 3 days
Protocol: According to Preparation examples 10-14, 1.0% oil-based aerosol of the Pyrone Compound was obtained. A container (12.5 cm in diameter, 17.5 cm in height, bottom covered 16-mesh iron net and inside wall painted butter for preventing tested pill bugs to escape) having a centipede (Scolopendra subspinipes mutilans) therein was set on the bottom center of a glass cylinder having 20 cm in diameter and 60 cm in height. About 1000 mg of the above oil-based aerosol were sprayed to the centipede from the upper part of the cylinder. After 30 seconds, the centipede was taken out and put into a clean plastic cup and given food and water. It was observed that the centipede was dead after 3 days.

Cc1cc(O)c(C(=O)CC(C)C)c(=O)o1 [The Pyrone Compound]
Knock-down percentage (%) 15 min. after spraying [1]: 95%
Mortality (%) ([2]; after 7 days): 83%
Knock-down percentage (%) ([2]; two hours): 100%
Hatching ratio (%) ([3]; dosage 5 mg/m^2, after 7 days): 1.7%
Hatching ratio (%) ([3]; dosage 25 mg/m^2, after 7 days): 0%
Hatching ratio (%) ([3]; dosage 125 mg/m^2, after 7 days): 0%
mortality (adult Porcellio scaber): 100%
mortality [4]: ≥ 90%
damage of the leaf disc compared with the non-treated disc [5]: clearly smaller
mortality [6]: ≥ 90%
state of the centipede after spraying [7]: dead
